Legend:
HDAC10 = target: T1, HDAC10 (Homo sapiens, UniProt Q969S8); assay: In-cell target engagement (NanoBRET) assay, NanoLuc-HDAC10; type: binding
T1 construct: NanoLuc®-HDAC10 FL Fusion Vector; host or cells: HeLa cells, stably transfected
T1 sequence (Q969S8 1-669): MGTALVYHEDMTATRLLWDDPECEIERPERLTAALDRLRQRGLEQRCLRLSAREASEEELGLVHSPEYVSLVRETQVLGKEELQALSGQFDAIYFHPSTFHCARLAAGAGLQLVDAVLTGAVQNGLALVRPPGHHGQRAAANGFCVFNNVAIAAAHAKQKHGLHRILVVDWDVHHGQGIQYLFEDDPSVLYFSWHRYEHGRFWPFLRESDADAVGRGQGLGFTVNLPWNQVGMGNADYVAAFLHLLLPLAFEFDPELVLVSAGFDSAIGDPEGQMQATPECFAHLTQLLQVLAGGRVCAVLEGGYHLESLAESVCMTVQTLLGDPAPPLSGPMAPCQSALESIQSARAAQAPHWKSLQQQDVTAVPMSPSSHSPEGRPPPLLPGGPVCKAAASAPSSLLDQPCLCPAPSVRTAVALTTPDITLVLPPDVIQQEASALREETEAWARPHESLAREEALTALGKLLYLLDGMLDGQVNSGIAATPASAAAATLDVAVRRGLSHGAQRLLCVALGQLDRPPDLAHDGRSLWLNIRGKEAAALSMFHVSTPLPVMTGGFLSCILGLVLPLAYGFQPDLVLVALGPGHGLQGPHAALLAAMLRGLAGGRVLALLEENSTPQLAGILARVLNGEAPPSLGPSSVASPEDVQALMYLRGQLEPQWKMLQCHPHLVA
Text: We next investigated if accumulation of lysosomes was also affected by inhibition of HDAC6 and HDAC10, respectively. […] Since no bona fide downstream target protein of HDAC10 has been described to date, we performed an in-cell target engagement (NanoBRET) assay that measures competitive displacement of a fluorescently-labeled tracer from NanoLuc® Luciferase coupled HDAC10 enzyme. […] To exclude that lysosomal accumulation after treatment with HDAC6/10 inhibitors was caused by off-target inhibition of class I HDACs, we treated BE(2)-C cells with 1 mM class I HDAC inhibitor valproic acid (VPA).
(§1) HeLa cells, stabily transfected with NanoBRET plasmids NanoLuc®-HDAC6 FL Fusion Vector and NanoLuc®-HDAC10 FL Fusion Vector (Promega, Madison, WI, USA) were seeded at 20.000 cells/well in white 96 well plates. Without further incubation, tracer (0.3 µM) and drugs were added in separate steps and plates were placed in a tissue culture incubator for 2 h. For NanoBRET quantification, plates were put at room temperature for 10 minutes. Nanoglow substrate, diluted in OptiMEM without phenol red, was added and measured within 10 minutes in an OPTIMA plate reader (460 nm emission for donor and 610LP filter for acceptor). The BRET signal was calculated by the ratio of acceptor signal and donor signal.

HDAC6 [1] = target: T2, HDAC6 (Homo sapiens, UniProt Q9UBN7); assay: In-cell target engagement (NanoBRET) assay, NanoLuc-HDAC6; type: binding; conditions: HeLa cells stably transfected with NanoLuc-HDAC6, 2 h
T2 sequence (Q9UBN7 1-1215): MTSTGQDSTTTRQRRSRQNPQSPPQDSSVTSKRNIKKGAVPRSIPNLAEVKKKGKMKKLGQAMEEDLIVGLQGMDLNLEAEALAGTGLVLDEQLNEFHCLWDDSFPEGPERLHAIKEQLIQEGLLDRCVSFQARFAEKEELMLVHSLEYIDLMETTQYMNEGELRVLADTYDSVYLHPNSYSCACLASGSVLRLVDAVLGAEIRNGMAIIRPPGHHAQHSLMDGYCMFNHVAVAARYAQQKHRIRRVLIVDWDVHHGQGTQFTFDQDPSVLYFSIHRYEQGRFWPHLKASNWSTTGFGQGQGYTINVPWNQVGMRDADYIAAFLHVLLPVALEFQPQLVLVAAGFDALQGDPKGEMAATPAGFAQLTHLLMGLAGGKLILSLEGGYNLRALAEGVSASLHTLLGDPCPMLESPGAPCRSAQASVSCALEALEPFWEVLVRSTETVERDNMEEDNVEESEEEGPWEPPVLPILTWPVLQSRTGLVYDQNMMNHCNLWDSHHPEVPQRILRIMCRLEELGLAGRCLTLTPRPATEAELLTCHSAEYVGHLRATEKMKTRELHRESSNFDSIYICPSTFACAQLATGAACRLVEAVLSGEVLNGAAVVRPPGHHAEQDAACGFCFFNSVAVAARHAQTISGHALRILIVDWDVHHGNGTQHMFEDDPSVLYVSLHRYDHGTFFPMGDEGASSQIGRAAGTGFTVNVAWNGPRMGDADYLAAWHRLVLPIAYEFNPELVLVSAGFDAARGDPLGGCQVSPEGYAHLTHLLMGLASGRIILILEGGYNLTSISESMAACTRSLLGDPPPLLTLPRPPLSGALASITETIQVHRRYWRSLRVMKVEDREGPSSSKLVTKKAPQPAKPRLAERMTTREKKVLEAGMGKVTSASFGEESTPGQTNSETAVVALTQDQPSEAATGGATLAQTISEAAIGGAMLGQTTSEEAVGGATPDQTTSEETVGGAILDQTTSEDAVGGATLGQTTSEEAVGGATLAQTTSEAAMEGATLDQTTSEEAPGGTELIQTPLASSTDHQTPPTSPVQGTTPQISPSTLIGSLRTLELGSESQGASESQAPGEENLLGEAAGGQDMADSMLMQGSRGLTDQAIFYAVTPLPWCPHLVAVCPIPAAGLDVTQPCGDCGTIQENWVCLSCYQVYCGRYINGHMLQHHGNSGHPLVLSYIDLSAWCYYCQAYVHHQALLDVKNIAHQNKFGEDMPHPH
Experimental: as §1

BE(2)-C cells [2] = assay: Flow cytometric analysis of LysoTracker DND-99 staining (lysosomal accumulation); type: cell-based, human; conditions: 24 h treatment
Experimental: Six days after siRNA transfection or 24 h after treatment with HDAC or lysosomal inhibitors, cells were stained for 1 h with 50 nM LysoTracker® Red DND-99 in medium under standard cell culture conditions. Cells were washed with ice-cold RPMI w/o phenol-red and detached using Trypsin/EDTA for 3 minutes at 37 °C. Cells were centrifuged, resuspended in RPMI w/o phenol red and LysoTracker® Red fluorescence was quantified on a BD FACSCanto II platform using the PE filter setting.

HDAC6 [3] = assay: Western blot analysis of tubulin K40 acetylation as a marker for HDAC6 inhibition; type: cell-based, human; conditions: 24 h treatment
Experimental: Western blot analysis was performed as previously described. The following antibodies were used: anti-HDAC6 (sc-11420, Santa Cruz), anti-HDAC10 (H3413, Sigma), anti-acetylated histone H3 (06-911, Merck Millipore), anti-histone H3 (9715, Cell Signaling Technology, Cambridge UK), anti-LAMP-1 (H4A3, DHSB, Iowa City, IA, USA), anti-LAMP-2 (H4B4; Santa Cruz Biotechnology), anti-acetylated tubulin (6–11B-1; Sigma), anti-tubulin (2148, Cell Signaling Technology), anti P-glycoprotein (13978 S, Cell Signaling Technology) and anti-β-actin (clone AC-15; Sigma).

BE(2)-C cells [4] = assay: Flow cytometric quantification of intracellular doxorubicin accumulation, BE(2)-C; type: cell-based, human; conditions: 100 ng/ml doxorubicin, 24 h co-treatment
Experimental: For flow cytometric quantification of intracellular doxorubicin after HDAC6/10 inhibition, BE(2)-C, SK-N-AS, IMR-32, HAP1 wild type and HDAC10 knockout cells were seeded in 6-well dishes at a density of 1.5 ∗ 10^5 cells/well (BE(2)-C and SK-N-AS, HAP1) and 3 ∗ 10^5 cells/well (IMR-32). Cells were treated with 25 ng/ml, 50 ng/ml, 100 ng/ml or 1 µg/ml doxorubicin, respectively, for 3–48 h (see respective figure legend). Where indicated, cells were co-treated with HDAC6/10 or lysosomal inhibitors. In case of co-treatment with vacuolin-1, vacuolin-1 was directly added to cells under doxorubicin treatment 1 h or 24 h prior to analysis. Flow cytometric quantification of intracellular doxorubicin after HDAC6, HDAC10 or P-glycoprotein knockdown in BE(2)-C cells was performed 5 days (P-glycoprotein) or 6 days (HDAC6/10) after transfection with siRNA. To that end, cells were seeded 3–4 days after transfection into 6-well dishes at 1.5 ∗ 10^5 cells per well and treated with 100 ng/ml doxorubicin +/− HDAC6/10 and lysosomal inhibitors for the last 24 h. After doxorubicin treatment, BE(2)-C, SK-N-AS, IMR-32 and HAP1 cells were washed with ice-cold RPMI w/o phenol-red and detached using Trypsin/EDTA for 3 minutes at 37 °C. Cells were centrifuged, resuspended in RPMI w/o phenol red and doxorubicin fluorescence was quantified on a BD FACSCanto II platform using the PE filter setting.

With `CN1C(=O)C2CN(Cc3c2c2ccccc2n3Cc2ccc(C(=O)NO)cc2)C1=O` (stereo not shown) [Marbostat-100] as the compound, how does the “concentrations at which HDAC10 is inhibited (NanoBRET)” value (HDAC10) read?
Its value is “above 150 nM”.

And the IC50 (HDAC10; HeLa cells stably transfected with NanoLuc-HDAC10, 2 h)?
The IC50 was 0.564 µM.

What about the IC50 (HDAC6 [1]) of the same compound?
Its IC50 is 0.00221 µM.

What about the “concentrations at which LysoTracker staining is increased” value (BE(2)-C cells [2]) of the same compound?
Its value is “above 1 µM”.

And the EC50 (BE(2)-C cells [2]; read-out: LysoTracker staining EC50)?
Its EC50 is 6.6 µM.

And the “concentrations inducing tubulin acetylation” value (HDAC6 [3])?
The value was at least 50 nM.

What about the “concentrations at which intracellular doxorubicin levels are increased” value (BE(2)-C cells [4]) of the same compound?
The value was at least 5 µM.

— publication PMC6030077, “Dual role of HDAC10 in lysosomal exocytosis and DNA repair promotes neuroblastoma chemoresistance” (Scientific Reports, 2018)
